# According to patent publication US20170217946A1, “AMINO-SUBSTITUTED ISOXAZOLES” (Bayer Pharma Aktiengesellschaft, priority 2014, published 2017):
# What was measured:
# HeLa cells = test: Proliferation assay (crystal violet); type: cell-based; conditions: Homo sapiens, 96 h, 4 days incubation, read-out: Inhibition of proliferation HeLa IC50
# Experimental: Cultivated tumor cells (cells were ordered from ATCC, except HeLa-MaTu and HeLa-MaTu-ADR, which were ordered from EPO-GmbH, Berlin) were plated at a density of 1000 to 5000 cells/well, depending on the growth rate of the respective cell line, in a 96-well multititer plate in 200 μL of their respective growth medium supplemented 10% fetal calf serum. After 24 hours, the cells of one plate (zero-point plate) were stained with crystal violet (see below), while the medium of the other plates was replaced by fresh culture medium (200 μl), to which the test substances were added in various concentrations (0 μM, as well as in the range of 0.001-10 μM; the final concentration of the solvent dimethyl sulfoxide was 0.5%). The cells were incubated for 4 days in the presence of test substances. Cell proliferation was determined by staining the cells with crystal violet: the cells were fixed by adding 20 μl/measuring point of an 11% glutaric aldehyde solution for 15 minutes at room temperature. After three washing cycles of the fixed cells with water, the plates were dried at room temperature. The cells were stained by adding 100 μl/measuring point of a 0.1% crystal violet solution (pH 3.0). After three washing cycles of the stained cells with water, the plates were dried at room temperature. The dye was dissolved by adding 100 μl/measuring point of a 10% acetic acid solution. Absorption was determined by photometry at a wavelength of 595 nm. The change of cell number, in percent, was calculated by normalization of the measured values to the absorption values of the zero-point plate (=0%) and the absorption of the untreated (0 μm) cells (=100%). The IC50 values were determined by means of a 4 parameter fit.
# human Bub1 = molecular target: T1, human Bub1 (Homo sapiens, UniProt O43683); test: Bub1 kinase assay (TR-FRET); type: biochemical; conditions: 10 μM ATP
# T1 construct: catalytic domain of human Bub1 (amino acids 704-1085); His6 (N); made in house; host or cells: insect cells (Hi5)
# T1 sequence (O43683 704-1085): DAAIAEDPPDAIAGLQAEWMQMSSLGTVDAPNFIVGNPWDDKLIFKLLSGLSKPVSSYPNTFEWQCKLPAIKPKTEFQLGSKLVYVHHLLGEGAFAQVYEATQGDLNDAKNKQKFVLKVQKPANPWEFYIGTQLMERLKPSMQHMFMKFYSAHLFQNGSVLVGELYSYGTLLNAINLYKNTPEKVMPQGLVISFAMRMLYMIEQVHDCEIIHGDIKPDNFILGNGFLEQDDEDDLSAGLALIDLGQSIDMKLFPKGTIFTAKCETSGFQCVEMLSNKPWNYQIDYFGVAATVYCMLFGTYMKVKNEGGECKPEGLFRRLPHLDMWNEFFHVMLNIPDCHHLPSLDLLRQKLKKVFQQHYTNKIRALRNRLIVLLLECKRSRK
# Excerpt: Bub1-inhibitory activity of compounds of the present invention was quantified employing the Bub1 TR-FRET assay as described in the following paragraphs.
# N-terminally His6-tagged recombinant catalytic domain of human Bub1 (amino acids 704-1085), expressed in insect cells (Hi5) and purified by Ni-NTA affinity chromatography and subsequent size exclusion chromatography, was used as enzyme. As substrate for the kinase reaction the biotinylated peptide biotin-Ahx-VLLPKKSFAEPG (C-terminus in amid form) was used which can be purchased e.g. form the company Biosyntan (Berlin, Germany).
# For the assay 50 nl of a 100 fold concentrated solution of the test compound in DMSO was pipetted into a black low volume 384 well microtiter plate (Greiner Bio-One, Frickenhausen, Germany), 2 μl of a solution of Bub1 in aqueous assay buffer [50 mM Tris/HCl pH 7.5, 10 mM magnesium chloride (MgCl2), 200 mM potassium chloride (KCl), 1.0 mM dithiothreitol (DTT), 0.1 mM sodium ortho-vanadate, 1% (v/v) glycerol, 0.01% (w/v) bovine serum albumine (BSA), 0.005% (v/v) Trition X-100 (Sigma), 1× Complete EDTA-free protease inhibitor mixture (Roche)] were added and the mixture was incubated for 15 min at 22° C. to allow pre-binding of the test compounds to the enzyme before the start of the kinase reaction. Then the kinase reaction was started by the addition of 3 μl of a solution of adenosine-tri-phosphate (ATP, 16.7 μM=>final conc. in the 5 μl assay volume is 10 μM) and substrate (1.67 μM=>final conc. in the 5 μl assay volume is 1 μM) in assay buffer and the resulting mixture was incubated for a reaction time of 60 min at 22° C. The concentration of Bub1 was adjusted depending of the activity of the enzyme lot and was chosen appropriate to have the assay in the linear range, typical concentrations were in the range of 200 ng/ml. The reaction was stopped by the addition of 5 μl of a solution of TR-FRET detection reagents (0.2 μM streptavidine-XL665 [Cisbio Bioassays, Codolet, France] and 1 nM anti-phosho-Serine antibody [Merck Millipore, cat. #35-001] and 0.4 nM LANCE EU-W1024 labeled anti-mouse IgG antibody [Perkin-Elmer, product no. AD0077, as an alternative a Terbium-cryptate-labeled anti-mouse IgG antibody from Cisbio Bioassays can be used]) in an aqueous EDTA-solution (50 mM EDTA, 0.2% (w/v) bovine serum albumin in 100 mM HEPES pH 7.5).
# The resulting mixture was incubated 1 h at 22° C. to allow the formation of complex between the phosphorylated biotinylated peptide and the detection reagents. Subsequently the amount of phosphorylated substrate was evaluated by measurement of the resonance energy transfer from the Eu-chelate to the streptavidine-XL. Therefore, the fluorescence emissions at 620 nm and 665 nm after excitation at 350 nm was measured in a TR-FRET reader, e.g. a Rubystar or Pherastar (both from BMG Labtechnologies, Offenburg, Germany) or a Viewlux (Perkin-Elmer). The ratio of the emissions at 665 nm and at […] was taken as the measure for the amount of phosphorylated substrate. The data were normalised (enzyme reaction without inhibitor=0% inhibition, all other assay components but no enzyme=100% inhibition).
Structure (SMILES),IC50 (HeLa cells),IC50 (human Bub1)
"COc1ccc(NC(=O)c2c(C)noc2Nc2cnc(C(F)(F)F)cn2)cn1 [Example 2c, N-(6-methoxypyridin-3-yl)-3-methyl-5-{[5-(trifluoromethyl)pyrazin-2-yl]amino}-1,2-oxazole-4-carboxamide]",2.7 µM,> 20 µM
"Cc1noc(Nc2cnc(C(F)(F)F)cn2)c1C(=O)Nc1ccc(OC[C@@H]2CCN(CC(F)F)C2)nc1 [Example 3a, N-(6-{[(3R)-1-(2,2-difluoroethyl)pyrrolidin-3-yl]methoxy}pyridin-3-yl)-3-methyl-5-{[5-(trifluoromethyl)pyrazin-2-yl]amino}-1,2-oxazole-4-carboxamide]",3.4 µM,> 20 µM
"Cc1noc(Nc2cnc(C(F)(F)F)cn2)c1C(=O)Nc1ccc(OC[C@@H]2CCN(CC(F)(F)F)C2)nc1 [Example 4a, 3-Methyl-N-(6-{[(3R)-1-(2,2,2-trifluoroethyl)pyrrolidin-3-yl]methoxy}pyridin-3-yl)-5-{[5-(trifluoromethyl)pyrazin-2-yl]amino}-1,2-oxazole-4-carboxamide]",2.8 µM,> 20 µM
"Cc1noc(Nc2cnc(C(F)(F)F)cn2)c1C(=O)Nc1ccc(OC[C@@H]2CCN(CCC(F)(F)F)C2)nc1 [Example 5a, 3-Methyl-5-{[5-(trifluoromethyl)pyrazin-2-yl]amino}-N-(6-{[(3R)-1-(3,3,3-trifluoro-propyl)pyrrolidin-3-yl]methoxy}pyridin-3-yl)-1,2-oxazole-4-carboxamide]",3.3 µM,> 20 µM
"Cc1noc(Nc2cnc(C(F)(F)F)cn2)c1C(=O)Nc1ccc(OC[C@H]2CCN(CC(F)F)C2)nc1 [Example 7a, N-(6-{[(3S)-1-(2,2-difluoroethyl)pyrrolidin-3-yl]methoxy}pyridin-3-yl)-3-methyl-5-{[5-(trifluoromethyl)pyrazin-2-yl]amino}-1,2-oxazole-4-carboxamide]",4 µM,> 20 µM
"Cc1noc(Nc2cnc(C(F)(F)F)cn2)c1C(=O)Nc1ccc(OC[C@H]2CCN(CC(F)(F)F)C2)nc1 [Example 8a, 3-Methyl-N-(6-{[(3S)-1-(2,2,2-trifluoroethyl)pyrrolidin-3-yl]methoxy}pyridin-3-yl)-5-{[5-(trifluoromethyl)pyrazin-2-yl]amino}-1,2-oxazole-4-carboxamide]",1.9 µM,> 20 µM
"Cc1noc(Nc2cnc(C(F)(F)F)cn2)c1C(=O)Nc1ccc(OC[C@H]2CCN(CCC(F)(F)F)C2)nc1 [Example 9a, 3-Methyl-5-{[5-(trifluoromethyl)pyrazin-2-yl]amino}-N-(6-{[(3S)-1-(3,3,3-trifluoro-propyl)pyrrolidin-3-yl]methoxy}pyridin-3-yl)-1,2-oxazole-4-carboxamide]",3.1 µM,> 20 µM
